Assay results taken from patent US11992499B2, “Quinoline derivatives for use in the treatment of inflammation diseases” (ABIVAX, priority 2018, dated 2024).

Tests used:
[1] = test system: Sugen hypoxia model; test: Rat Sugen hypoxia model of pulmonary arterial hypertension: mean pulmonary pressure; format: in vivo; details: SuHx, 50 mg/kg BID gavage Day 22 to Day 56
Method: Animals from Groups 2 to 5 (see Table 10) receive a single subcutaneous injection of sugen (20 mg/kg in 2 mL/kg volume) solution (10 mg/mL) on Day 0 and returned to their cages. Animals from Group 1 receive one subcutaneous injection of DMSO at 2 mL/kg (vehicle for sugen) on Day 0 and returned to their respective cages.
Groups 2-5 are placed in cages for which the controlled air is adjusted to receive a FiO2 equivalent to 0.10 (10%) using a mixture of nitrogen and ambient air controlled by the ventilated cage system. They are kept under these hypoxic conditions for 21 days. While in hypoxia, cages are cleaned and changed once a week, exposing the animals to ambient oxygen levels for less than 10 minutes. They are exposed to ambient oxygen levels from Day 22 to Day 56. Group 1 animals remain in cages exposed to ambient oxygen (normoxic) levels for 56 days. The animals are observed on a daily basis for any changes in their behaviour and general health status.
(§1) Treatment with the compound A, sildenafil or vehicle is administered as of Day 22 (Groups 2-5) as scheduled and described in Table 10. The Groups 2-4 receives a single dose per day. The reference group 5 receives sildenafil twice a day. Food and water are given ad libitum. Daily observation of the behaviour and general health status of the animals is done. Weekly body weight is taken.
Surgical Instrumentation and Measurement of Hemodynamic and Functional Parameters in Efficacy Study Animals • 1. On the selected day of surgery, rats are anaesthetized with a mixture of 2 to 2.5% isoflurane USP (Abbot Laboratories, Montreal, Canada) in oxygen, and placed on a heating pad to maintain body temperature. • 2. Rats are tracheotomized and immediately ventilated by means of a positive-pressure rodent respirator set at ≈10 ml/kg body weight at a frequency of 65-70 strokes/min. • 3. Lead II ECG contact electrodes is placed on the rat to continuously monitor the ECG during the surgical procedure. • 4. A cannula connected to a pressure transducer is inserted into the left femoral artery to measure the arterial blood pressure. • 5. A cannula connected to a pressure transducer is inserted into the right atria through the right jugular vein to measure the right atria pressure. • 6. The heart is exposed through a sternotomy and a 20GA 1.16 in Insyte is introduced into the right ventricle and rapidly hooked up to a saline filled PE-50 catheter connected to a transducer. • 7. Following a few seconds of right ventricular pressure recording, the Insyte is further advanced into the pulmonary artery to allow PAP recording for an additional 60 seconds. • 8. Hemodynamic parameters are recorded continuously for the duration of the procedure or until loss of PAP signal. • 9. Following hemodynamic monitoring, chest cavity is further opened to expose the lung. The muscle over the trachea is dissected away to remove the lungs and heart. Harvested tissue is rinsed with PBS to remove any excess of blood before to be weighed. • 10. For the histology and casting of the lungs, the process is as follows; 1) eight (8) rats per group is reserved to assess the histology of the left lung and is therefore be treated as described in point 12 of this section 8.2; 2) Two (2) rats per group serve to enable quantitative characterization of the three-dimensional vascular structure of the left lung and therefore is treated as described in section 8.3 for casting of the left lung. • 11. For histology, the left lobe is inflated using a 10 mL syringe filled with fixative (10% NBF) with attached blunt tip needle (23 g). Needle tip is inserted into the trachea, held in place with tied suture while another syringe is tied to the pulmonary artery. The lung is inflated gently at physiological pressure (20-25 mmHg) until all lobes are fully, uniformly, and consistently expanded (not allowing fixative to ooze through lung surface). This provides optimal vascular and airway expansion without causing excessive tissue disruption. […]

[2] = test system: monocrotaline model of pulmonary arterial hypertension; test: Rat monocrotaline model of pulmonary arterial hypertension: mean pulmonary pressure; format: in vivo; details: female rat, MCT, 50 mg/kg BID gavage Day 7 to Day 28, n = 11
Method: • 1. The experimental trace to be analyzed is opened in Clampfit. • 2. Right atria pressure is recorded for 1 minute • 3. PAP recorded continuously for at least 1 minute or until loss of signal, is used to extract the mean, diastolic, and systolic pulmonary pressure. • 4. The systemic arterial pressure (SAP) recorded continuously is used to extract the mean, diastolic and systolic arterial pressure. • 5. At the end of the hemodynamic parameters recording, the right and left ventricle including the septum and the lung lobes is excised to determine wet weights. • 6. Each parameter is compiled for each group and presented in bar graphs with appropriate statistical analysis.
The appropriate amount of monocrotaline is weighed and ⅓ of the correct volume of 1.0N HCl is added and mixed to ensure monocrotaline solubilisation. The solution is then neutralized with ⅓ of the correct volume of 1.0 N NaOH. The pH of the solution is checked with a pH indicator paper/strip or an electronic pH meter and adjusted to neutral as necessary; the final volume is completed with water for injection to obtain a solution of 20 mg/mL. The monocrotaline solution is injected subcutaneously, over the shoulders, into the loose skin over the neck, to each rat at 3 mL/kg of body weight (dose is 60 mg/kg).
Compound A was administered as a suspension in the vehicle. To reach the required concentrations, compound A was grounded to a fine powder, using a mortar and pestle, and then mixed with 20% (final volume) of vehicle A1 until a suspension was achieved. 80% of vehicle A2 was then added to the suspension under magnetic stirring.
The appropriate amount of Sildenafil is weighed and appropriate volume of distillated water is added to obtain suspension at 5 mg/mL. The suspension is mixed with a stir bar for 30-60 minutes until a homogenous suspension is achieved. Care is taken to maintain a uniform suspension (stirring continuously) whilst doses are being drawn up into gavage syringes. One gavage syringe is filled at a time and administered before filling the next syringe. The solutions are stored refrigerated at 2 to 8° C. and protected from light. The expiration date is set at 7 days after preparation.
Animals from Groups 2 to 5 (see Table 13) receive a single subcutaneous injection of monocrotaline (60 mg/kg) solution on Day 0 and returned to their cages. Animals from Group 1 receive one subcutaneous injection vehicle for MCT on Day 0 and returned to their respective cages.
as §1, with “Day 7” for “Day 22”, “Table 13.” for “Table 10.”, “2-4 receive” for “2-4 receives”
Surgical Instrumentation and Measurement of Hemodynamic and Functional Parameters in Efficacy Study Animals • 1. On the selected day of surgery, rats are anaesthetized with a mixture of 2 to 2.5% isoflurane USP (Abbot Laboratories, Montreal, Canada) in oxygen, and placed on a heating pad to maintain body temperature. • 2. Rats are tracheotomized and immediately ventilated by means of a positive-pressure rodent respirator set at ≈10 ml/kg bodyweight at a frequency of 65-70 strokes/min. • 3. Lead II ECG contact electrodes is placed on the rat to continuously monitor the ECG during the surgical procedure. • 4. A cannula connected to a pressure transducer is inserted into the left femoral artery to measure the arterial blood pressure. • 5. A cannula connected to a pressure transducer is inserted into the right atria through the right jugular vein to measure the right atria pressure. • 6. The heart is exposed through a sternotomy and a 20GA 1.16 in Insyte is introduced into the right ventricle and rapidly hooked up to a saline filled PE-50 catheter connected to a transducer. • 7. […]

## CCCc1nn(C)c2c(=O)[nH]c(-c3cc(S(=O)(=O)N4CCN(C)CC4)ccc3OCC)nc12 [Sildenafil, reference compound]
[1]; female rats
  Mean Pulmonary Pressure: 22.5 mmHg
[1]; male rats
  Mean Pulmonary Pressure: 30.1 mmHg
[2]
  Mean Pulmonary Pressure: 18.9 mmHg
